Results as given in patent publication US20240246967A1, “AXL COMPOUNDS” (ARCUS BIOSCIENCES, INC., priority 2021, published 2024).

Molecular target: T1, human MER (Homo sapiens, UniProt Q12866)
T1 construct: purchased Invitrogen
T1 sequence (Q12866 21-999): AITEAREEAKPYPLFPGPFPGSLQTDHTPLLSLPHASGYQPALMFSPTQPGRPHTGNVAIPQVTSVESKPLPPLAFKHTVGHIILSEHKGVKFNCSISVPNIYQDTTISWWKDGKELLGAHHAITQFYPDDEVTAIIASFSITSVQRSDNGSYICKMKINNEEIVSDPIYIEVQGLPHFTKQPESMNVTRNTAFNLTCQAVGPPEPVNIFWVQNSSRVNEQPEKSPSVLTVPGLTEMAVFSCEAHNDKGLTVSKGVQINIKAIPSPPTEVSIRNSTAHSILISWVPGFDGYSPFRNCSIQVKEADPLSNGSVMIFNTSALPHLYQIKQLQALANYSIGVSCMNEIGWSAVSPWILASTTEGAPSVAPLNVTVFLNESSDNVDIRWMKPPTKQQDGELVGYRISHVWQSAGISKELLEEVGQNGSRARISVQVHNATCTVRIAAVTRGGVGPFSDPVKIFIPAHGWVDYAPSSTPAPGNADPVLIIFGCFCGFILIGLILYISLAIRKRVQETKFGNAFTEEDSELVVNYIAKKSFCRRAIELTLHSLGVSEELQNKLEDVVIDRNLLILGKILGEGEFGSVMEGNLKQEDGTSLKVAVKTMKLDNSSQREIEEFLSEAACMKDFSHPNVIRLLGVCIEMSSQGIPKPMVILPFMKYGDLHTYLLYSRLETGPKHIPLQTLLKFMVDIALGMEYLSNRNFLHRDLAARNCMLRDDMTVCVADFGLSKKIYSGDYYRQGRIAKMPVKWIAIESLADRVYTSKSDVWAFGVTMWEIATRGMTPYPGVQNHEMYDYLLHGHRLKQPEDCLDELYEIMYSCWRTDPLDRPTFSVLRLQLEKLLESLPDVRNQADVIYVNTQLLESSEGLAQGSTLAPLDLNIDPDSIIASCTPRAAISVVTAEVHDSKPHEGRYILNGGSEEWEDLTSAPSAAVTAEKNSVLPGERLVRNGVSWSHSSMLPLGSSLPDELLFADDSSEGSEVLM
Assay: HTRF KinEASE-TK biochemical potency assay, MER
Conditions: 1 nM MER, 700 μM ATP, 800 nM TK Substrate-biotin
Description: Purified recombinant human AXL, TYRO3 and MER proteins were purchased from Invitrogen™. 10 nM AXL, 2 nM TYRO3 or MER were incubated with varying concentrations of compounds in 50 mM HEPES, pH 7.4, 10 mM MgCl2, 0.01% BSA, 1 mM DTT and 2% DMSO in a total volume of 20 μl in a 384-well microplate (Corning™ #3640) at RT for 1 h. The AXL, TYRO3 and MER enzymatic reaction was initiated by transferring 10 μl of enzyme and compound mixture into 10 μl of 1.6 μM TK Substrate-biotin (HTRF® KinEASE-TK kit, Cisbio) and 1400 μM ATP pre-incubated in 50 mM HEPES, pH 7.4, 10 mM MgCl2, 0.01% BSA, 1 mM DTT in a 384-well microplate (Corning™ #3640) at RT, giving the final reaction conditions: 5 nM AXL, 1 nM TYRO3 or MER, 800 nM TK Substrate-biotin and 700 μM ATP in 50 mM HEPES, pH 7.4, 10 mM MgCl2, 0.01% BSA, 1 mM DTT and 1% DMSO with varying concentrations of compounds. Following 2 h incubation at RT, the AXL, TYRO3 and MER enzymatic reaction was stopped by transfer of 10 μl of reaction into 10 μl of detection mix (400 nM Streptavidin-XL665, 200-fold dilution TK Antibody-Cryptate and detection buffer, HTRF® KinEASE-TK kit, Cisbio) in a white 384-well microplate (Perkin Elmer, OptiPlate 384). After 1 h incubation at RT, the plate was put into a plate reader (Evision) to read at 665/620 nm (acceptor/donor) for HTRF. The value of the DMSO blank (MIN inhibition=100% activity) was used as a negative control. The positive control was established by adding 5 μl of enzyme and DMSO mixture into 10 μl of detection mix followed by addition of 5 μl of TK Substrate-biotin and ATP mixture (MAX inhibition=0% activity). To calculate the percent activity, Equation 1 was used. Ratio 665/620 is the value at a given compound concentration: […]

SMILES	IC50
C[C@@H]1CCCN1[C@@H]1CCc2cc(-c3cnc4[nH]nc(-c5ccc(S(=O)(=O)C6CC6)cc5)c4c3)cnc2CC1 [Example 101, (2R)-1-(3-{3-[4-(Cyclopropanesulfonyl)phenyl]-1H-pyrazolo[3,4-b]pyridin-5-yl}-5H,6H,7H,8H,9H-cyclohepta[b]pyridin-7-yl)-2-methylpyrrolidine]	> 1 µM
Cc1cc(-c2n[nH]c3ncc(-c4ccc5c(c4)CCN(C(=O)C(C)C)CC5)cc23)ccc1C(=O)N1CCNCC1 [Example 48, 2-Methyl-1-(7-{3-[3-methyl-4-(piperazine-1-carbonyl)phenyl]-1H-pyrazolo[3,4-b]pyridin-5-yl}-2,3,4,5-tetrahydro-1H-3-benzazepin-3-yl)propan-1-one]	> 1 µM
c1cc2c(cc1-c1cnc3[nH]nc(-c4ccc(N5C[C@H]6C[C@@H]5CO6)cc4)c3c1)CC[C@@H](N1C3COCC1C3)CC2 [Example 126, (1R,4R)-5-(4-{5-[(7S)-7-{3-oxa-6-azabicyclo[3.1.1]heptan-6-yl}-6,7,8,9-tetrahydro-5H-benzo[7]annulen-2-yl]-2H-pyrazolo[3,4-b]pyridin-3-yl}phenyl)-2-oxa-5-azabicyclo[2.2.1]heptane]	> 1 µM
COc1cc(-c2n[nH]c3ncc(-c4ccc5c(c4)CCC(C)(N4CCC[C@H]4C)CC5)cc23)ccc1OC[C@H]1COCCO1 (stereo partly drawn) [Example 114, (2R)-1-{2-[3-(4-{[(2R)-1,4-Dioxan-2-yl]methoxy}-3-methoxyphenyl)-1H-pyrazolo[3,4-b]pyridin-5-yl]-7-methyl-6,7,8,9-tetrahydro-5H-benzo[7]annulen-7-yl}-2-methylpyrrolidine]	> 1 µM
CCC1(N2CCC[C@H]2C)CCc2ccc(-c3cnc4[nH]nc(-c5ccc(S(=O)(=O)C6CC6)cc5)c4c3)cc2CC1 (stereo partly drawn) [Example 6, (2R)-1-(2-{3-[4-(Cyclopropanesulfonyl)phenyl]-1H-pyrazolo[3,4-b]pyridin-5-yl}-7-ethyl-6,7,8,9-tetrahydro-5H-benzo[7]annulen-7-yl)-2-methylpyrrolidine]	> 1 µM
C[C@H]1CCCN1C1(C)CCc2ccc(-c3cnc4[nH]nc(-c5ccc(S(=O)(=O)C6CC6)cc5)c4c3)cc2CC1 (stereo partly drawn) [Example 5, (2S)-1-(2-{3-[4-(Cyclopropanesulfonyl)phenyl]-1H-pyrazolo[3,4-b]pyridin-5-yl}-7-methyl-6,7,8,9-tetrahydro-5H-benzo[7]annulen-7-yl)-2-methylpyrrolidine]	0.1 to 1 µM
C[C@@H]1CCCN1C1CCc2ccc(-c3cnc4[nH]nc(-c5ccc(C(C)(C)O)cn5)c4c3)cc2CC1 (stereo partly drawn) [Example 97, 2-[6-(5-{7-[(2R)-2-Methylpyrrolidin-1-yl]-6,7,8,9-tetrahydro-5H-benzo[7]annulen-2-yl}-1H-pyrazolo[3,4-b]pyridin-3-yl)pyridin-3-yl]propan-2-ol]	> 1 µM
C[C@@H]1CCCN1C1CCc2ccc(-c3cnc4[nH]nc(-c5ccc(S(=O)(=O)C6CC6)cc5)c4c3)cc2C(C)(C)C1 (stereo partly drawn) [Example 109, (2R)-1-(2-{3-[4-(Cyclopropanesulfonyl)phenyl]-1H-pyrazolo[3,4-b]pyridin-5-yl}-9,9-dimethyl-6,7,8,9-tetrahydro-5H-benzo[7]annulen-7-yl)-2-methylpyrrolidine]	> 1 µM
C[C@H]1CCCN1C1(C)CCc2ccc(-c3cnc4[nH]nc(-c5ccc(C(C)(C)O)c(Cl)c5)c4c3)cc2CC1 (stereo partly drawn) [Example 58, 2-[2-Chloro-4-(5-{7-methyl-7-[(2S)-2-methylpyrrolidin-1-yl]-6,7,8,9-tetrahydro-5H-benzo[7]annulen-2-yl}-1H-pyrazolo[3,4-b]pyridin-3-yl)phenyl]propan-2-ol]	0.1 to 1 µM
CCS(=N)(=O)c1ccc(-c2n[nH]c3ncc(-c4ccc5c(c4)CCC(C)(N4CCC[C@H]4C)CC5)cc23)cc1 (stereo partly drawn) [Example 100, Ethyl(imino)[4-(5-{7-methyl-7-[(2R)-2-methylpyrrolidin-1-yl]-6,7,8,9-tetrahydro-5H-benzo[7]annulen-2-yl}-1H-pyrazolo[3,4-b]pyridin-3-yl)phenyl]-λ^6-sulfanone]	0.1 to 1 µM

Second part, the molecule after the results:

IC50	SMILES
0.1 to 1 µM	C[C@@H]1CCCN1C1(C)CCc2ccc(-c3cnc4[nH]nc(-c5ccc(S(=O)(=O)C6CCC6)cc5)c4c3)cc2CC1 (stereo partly drawn) [Example 46, 3-(4-(Cyclobutylsulfonyl)phenyl)-5-(7-methyl-7-((R)-2-methylpyrrolidin-1-yl)-6,7,8,9-tetrahydro-5H-benzo[7]annulen-2-yl)-1H-pyrazolo[3,4-b]pyridine]
0.1 to 1 µM	C[C@@H]1CCCN1C1CCc2ccc(-c3cnc4[nH]nc(-c5ccc(C6(O)CCC6)c(Cl)c5)c4c3)cc2CC1 (stereo partly drawn) [Example 62, 1-[2-Chloro-4-(5-{7-[(2R)-2-methylpyrrolidin-1-yl]-6,7,8,9-tetrahydro-5H-benzo[7]annulen-2-yl}-1H-pyrazolo[3,4-b]pyridin-3-yl)phenyl]cyclobutan-1-ol]
0.1 to 1 µM	CCS(=O)(=O)c1ccc(-c2n[nH]c3ncc(-c4ccc5c(c4)CC[C@@H](N4CCCC4)CC5)cc23)cc1 [Example 41, (S)-3-(4-(Ethylsulfonyl)phenyl)-5-(7-(pyrrolidin-1-yl)-6,7,8,9-tetrahydro-5H-benzo[7]annulen-2-yl)-1H-pyrazolo[3,4-b]pyridine]
0.1 to 1 µM	CC(C)(O)c1ccc(-c2n[nH]c3ncc(-c4ccc5c(c4)CCN(C4CCCC4)CC5)cc23)cn1 [Example 10, 2-{5-[5-(3-Cyclopentyl-2,3,4,5-tetrahydro-1H-3-benzazepin-7-yl)-1H-pyrazolo[3,4-b]pyridin-3-yl]pyridin-2-yl}propan-2-ol]
0.1 to 1 µM	C[C@@H]1CCCN1C1CCc2ccc(-c3cnc4[nH]nc(-c5ccc(C(C)(C)O)c(Cl)c5)c4c3)cc2CC1 (stereo partly drawn) [Example 35, 2-(2-Chloro-4-(5-(7-((R)-2-methylpyrrolidin-1-yl)-6,7,8,9-tetrahydro-5H-benzo[7]annulen-2-yl)-1H-pyrazolo[3,4-b]pyridin-3-yl)phenyl)propan-2-ol]
0.1 to 1 µM	C[C@@H]1CCCN1C1CCc2ccc(-c3cnc4[nH]nc(-c5ccc(S(=O)(=O)C6CC6)cc5)c4c3)cc2CC1 (stereo partly drawn) [Example 39, 3-(4-(Cyclopropylsulfonyl)phenyl)-5-(7-((R)-2-methylpyrrolidin-1-yl)-6,7,8,9-tetrahydro-5H-benzo[7]annulen-2-yl)-1H-pyrazolo[3,4-b]pyridine]
0.1 to 1 µM	CC(C)(O)c1ccc(-c2n[nH]c3ncc(-c4ccc5c(c4)CCC(N4CCCC4)CC5)cc23)cc1Cl (stereo not shown) [Example 11, 2-(2-Chloro-4-{5-[7-(pyrrolidin-1-yl)-6,7,8,9-tetrahydro-5H-benzo[7]annulen-2-yl]-1H-pyrazolo[3,4-b]pyridin-3-yl}phenyl)propan-2-ol]
< 0.1 µM	Cc1cc(-c2n[nH]c3ncc(-c4ccc5c(c4)CC[C@@H](N4CCCC4)CC5)cc23)cc(Cl)c1C(=O)N1CCNCC1 [Example 56, 1-(2-Chloro-6-methyl-4-{5-[(7S)-7-(pyrrolidin-1-yl)-6,7,8,9-tetrahydro-5H-benzo[7]annulen-2-yl]-1H-pyrazolo[3,4-b]pyridin-3-yl}benzoyl)piperazine]
0.1 to 1 µM	C[C@@H]1CCCN1C1CCc2ccc(-c3cnc4[nH]nc(-c5ccc(C(C)(C)O)c(C(F)(F)F)c5)c4c3)cc2CC1 (stereo partly drawn) [Example 20, 2-[4-(5-{7-[(2R)-2-Methylpyrrolidin-1-yl]-6,7,8,9-tetrahydro-5H-benzo[7]annulen-2-yl}-1H-pyrazolo[3,4-b]pyridin-3-yl)-2-(trifluoromethyl)phenyl]propan-2-ol]
